From patent US20260144805A1, “CANNABIDIOL COMPOSITIONS FOR USE IN THE TREATMENT OF NEURODEGENERATIVE AND NEUROLOGICAL DISORDERS” (JAZZ PHARMACEUTICALS RESEARCH UK LIMITED, priority 2022, published 2026)

Legend:
Assay type in all cases: in vivo
[1] = test system: rat model of essential tremor; assay: Harmaline rat model of essential tremor, observed tremor score (Example 4); design: key to Observed tremor score, significance vs harmaline + vehicle: ns = not significant; *, **, ***, **** = statistical significance at p < 0.05, 0.01, 0.001, 0.0001 respectively; *, **, ***, **** = statistical significance at p < 0.05, 0.01, 0.001, 0.0001 respectively; *, **, ***, **** = statistical significance at p < 0.05, 0.01, 0.001, 0.0001 respectively; *, **, ***, **** = statistical significance at p < 0.05, 0.01, 0.001, 0.0001 respectively; settings: for Observed tremor score, significance vs harmaline + vehicle: I.P.
Source text: (§1) The following study was designed to assess the drug substance (DS) efficacy in the rat model of essential tremor. Synthetic CBD (sCBD I.P.) and DS I.P. and DS. P.O and compared observing tremor score, motion power percentage (MPP), tremor index (TI), number of tremors, total time spent in tremor, and average tremor length.
(§2) The results are summarized in Tables J-M. All comparisons were made to the harmaline+vehicle group within each study.

[2] = test system: rat model of essential tremor; assay: Harmaline rat model of essential tremor, tremor plate: motion power percentage, tremor index, number of tremors, time in tremor, tremor length (Example 4); design: key to Motion Power Percentage, significance vs harmaline + vehicle / Number of tremors, significance vs harmaline + vehicle / Total time in tremor, significance vs harmaline + vehicle / Average tremor length, significance vs harmaline + vehicle: ns = not significant; *, **, ***, **** = statistical significance at p < 0.05, 0.01, 0.001, 0.0001 respectively; *, **, ***, **** = statistical significance at p < 0.05, 0.01, 0.001, 0.0001 respectively; *, **, ***, **** = statistical significance at p < 0.05, 0.01, 0.001, 0.0001 respectively; *, **, ***, **** = statistical significance at p < 0.05, 0.01, 0.001, 0.0001 respectively; settings: for Average tremor length, significance vs harmaline + vehicle / Number of tremors, significance vs harmaline + vehicle / Total time in tremor, significance vs harmaline + vehicle / Motion Power Percentage, significance vs harmaline + vehicle: I.P.
Source text: as §1, §2

[3] = test system: valproic acid-induced autism spectrum disorder (ASD) mouse model; assay: Valproic acid-induced ASD model, autism-like behaviors, DS vs sCBD and risperidone (Example 6, Table P); design: key to Adult open field hyperactivity (spontaneous LMA on day 1) / Adult open field hyperactivity (LMA on day 2) / Adult marble burying / Adult grooming / Juvenile vocalisation: +: improvement; Ø: no change; −: not tested
Source text: (§3) The main objective of the following study was to assess the effect of the drug substance (DS) of Example 1 in ameliorating autism-like behavior in valproic acid-induced autism spectrum disorder (ASD) mouse model (FIGS. 19A-B).

[4] = test system: valproic acid-induced autism spectrum disorder (ASD) mouse model; assay: Valproic acid-induced ASD model, social behavior (Example 6, Table P); design: key: +: improvement; Ø: no change; −: not tested
Source text: as §3

[5] = test system: valproic acid-induced autism spectrum disorder (ASD) mouse model; assay: Valproic acid-induced ASD model, bottle-brush test (irritability) (Example 6, Table P); design: key: +: improvement; Ø: no change; −: not tested
Source text: as §3

C=C(C)[C@@H]1CCC(C)=C[C@H]1c1c(O)cc(CCCCC)cc1O [sCBD, 2-[(1R,6R)-3-Methyl-6-(1-methylethenyl)-2-cyclohexen-1-yl]-5-pentyl-1,3-benzenediol]
Minimum dose (as CBD) decreasing the observed tremor score ([1]; DS oral and intraperitoneal, sCBD i.p.): 27 mg/kg | Observed tremor score, significance vs harmaline + vehicle ([1]; dose 9.1 mg/kg, 20 min): ns | Observed tremor score, significance vs harmaline + vehicle ([1]; dose 9.1 mg/kg, 40 min): ns | Observed tremor score, significance vs harmaline + vehicle ([1]; dose 9.1 mg/kg, 60 min): ns | Observed tremor score, significance vs harmaline + vehicle ([1]; dose 27.3 mg/kg, 20 min): ns | Observed tremor score, significance vs harmaline + vehicle ([1]; dose 27.3 mg/kg, 40 min): * (*, **, ***, **** = statistical significance at p < 0.05, 0.01, 0.001, 0.0001 respectively) | Observed tremor score, significance vs harmaline + vehicle ([1]; dose 27.3 mg/kg, 60 min): * (*, **, ***, **** = statistical significance at p < 0.05, 0.01, 0.001, 0.0001 respectively) | Observed tremor score, significance vs harmaline + vehicle ([1]; dose 54.7 mg/kg, 20 min): ** (*, **, ***, **** = statistical significance at p < 0.05, 0.01, 0.001, 0.0001 respectively) | Observed tremor score, significance vs harmaline + vehicle ([1]; dose 54.7 mg/kg, 40 min): * (*, **, ***, **** = statistical significance at p < 0.05, 0.01, 0.001, 0.0001 respectively) | Observed tremor score, significance vs harmaline + vehicle ([1]; dose 54.7 mg/kg, 60 min): * (*, **, ***, **** = statistical significance at p < 0.05, 0.01, 0.001, 0.0001 respectively) | Observed tremor score, significance vs harmaline + vehicle ([1]; dose 91.1 mg/kg, 20 min): * (*, **, ***, **** = statistical significance at p < 0.05, 0.01, 0.001, 0.0001 respectively) | Observed tremor score, significance vs harmaline + vehicle ([1]; dose 91.1 mg/kg, 40 min): ns | Observed tremor score, significance vs harmaline + vehicle ([1]; dose 91.1 mg/kg, 60 min): ns | Average tremor length, significance vs harmaline + vehicle ([2]; dose 9.1 mg/kg): ns | Number of tremors, significance vs harmaline + vehicle ([2]; dose 9.1 mg/kg): ns | Total time in tremor, significance vs harmaline + vehicle ([2]; dose 9.1 mg/kg): ns | Motion Power Percentage, significance vs harmaline + vehicle ([2]; dose 9.1 mg/kg, 20 min): ns | Motion Power Percentage, significance vs harmaline + vehicle ([2]; dose 9.1 mg/kg, 40 min): ns | Motion Power Percentage, significance vs harmaline + vehicle ([2]; dose 9.1 mg/kg, 60 min): ns | Average tremor length, significance vs harmaline + vehicle ([2]; dose 27.3 mg/kg): ns | Number of tremors, significance vs harmaline + vehicle ([2]; dose 27.3 mg/kg): ns | Total time in tremor, significance vs harmaline + vehicle ([2]; dose 27.3 mg/kg): ns | Motion Power Percentage, significance vs harmaline + vehicle ([2]; dose 27.3 mg/kg, 20 min): ns | Motion Power Percentage, significance vs harmaline + vehicle ([2]; dose 27.3 mg/kg, 40 min): ns | Motion Power Percentage, significance vs harmaline + vehicle ([2]; dose 27.3 mg/kg, 60 min): ns | Average tremor length, significance vs harmaline + vehicle ([2]; dose 54.7 mg/kg): ns | Number of tremors, significance vs harmaline + vehicle ([2]; dose 54.7 mg/kg): ns | Total time in tremor, significance vs harmaline + vehicle ([2]; dose 54.7 mg/kg): ns | Motion Power Percentage, significance vs harmaline + vehicle ([2]; dose 54.7 mg/kg, 20 min): ns | Motion Power Percentage, significance vs harmaline + vehicle ([2]; dose 54.7 mg/kg, 40 min): ns | Motion Power Percentage, significance vs harmaline + vehicle ([2]; dose 54.7 mg/kg, 60 min): ns | Average tremor length, significance vs harmaline + vehicle ([2]; dose 91.1 mg/kg): ns | Number of tremors, significance vs harmaline + vehicle ([2]; dose 91.1 mg/kg): ns | Total time in tremor, significance vs harmaline + vehicle ([2]; dose 91.1 mg/kg): ns | Motion Power Percentage, significance vs harmaline + vehicle ([2]; dose 91.1 mg/kg, 20 min): ns | Motion Power Percentage, significance vs harmaline + vehicle ([2]; dose 91.1 mg/kg, 40 min): ns | Motion Power Percentage, significance vs harmaline + vehicle ([2]; dose 91.1 mg/kg, 60 min): * (*, **, ***, **** = statistical significance at p < 0.05, 0.01, 0.001, 0.0001 respectively) | Dose (as CBD) from which MPP and TI were significantly reduced ([2]; intraperitoneal, sCBD only at one time point (60 min)): 91 mg/kg | Adult grooming ([3]; 9.21 mg/kg I.P.): + | Adult marble burying ([3]; 9.21 mg/kg I.P.): Ø | Adult open field hyperactivity (LMA on day 2) ([3]; 9.21 mg/kg I.P.): Ø | Adult open field hyperactivity (spontaneous LMA on day 1) ([3]; 9.21 mg/kg I.P.): + | Adult grooming ([3]; 27.63 mg/kg I.P.): + | Adult marble burying ([3]; 27.63 mg/kg I.P.): + | Adult open field hyperactivity (LMA on day 2) ([3]; 27.63 mg/kg I.P.): + | Adult open field hyperactivity (spontaneous LMA on day 1) ([3]; 27.63 mg/kg I.P.): + | Adult grooming ([3]; 92.11 mg/kg I.P.): + | Adult marble burying ([3]; 92.11 mg/kg I.P.): + | Adult open field hyperactivity (LMA on day 2) ([3]; 92.11 mg/kg I.P.): + | Adult open field hyperactivity (spontaneous LMA on day 1) ([3]; 92.11 mg/kg I.P.): + | Juvenile vocalisation ([3]; 92.11 mg/kg I.P.): + | minimum effective dose in social behavior and after the bottle-brush test (irritability) ([3]; i.p.): 92.11 mg/kg | Adult active social behavior ([4]; 9.21 mg/kg I.P.): Ø | Juvenile play behavior ([4]; 9.21 mg/kg I.P.): Ø | Adult active social behavior ([4]; 27.63 mg/kg I.P.): Ø | Juvenile play behavior ([4]; 27.63 mg/kg I.P.): Ø | Adult active social behavior ([4]; 92.11 mg/kg I.P.): + | Juvenile play behavior ([4]; 92.11 mg/kg I.P.): + | Adult bottle brush irritability test ([5]; 9.21 mg/kg I.P.): Ø | Juvenile bottle brush irritability test ([5]; 9.21 mg/kg I.P.): Ø | Adult bottle brush irritability test ([5]; 27.63 mg/kg I.P.): Ø | Juvenile bottle brush irritability test ([5]; 27.63 mg/kg I.P.): + | Adult bottle brush irritability test ([5]; 92.11 mg/kg I.P.): + | Juvenile bottle brush irritability test ([5]; 92.11 mg/kg I.P.): +
